Reference: patent publication US8575156B2, “Cyclic inhibitors of 11β-hydroxysteroid dehydrogenase 1” (Vitae Pharmaceuticals, Inc., priority 2007, dated 2013)
Like-named read-outs stand apart in the source and are kept apart here.

How the values were obtained:
11β-HSD1 [1] = target: T1, 11β-HSD1 (Homo sapiens, UniProt P28845); conditions: for IC50: read-out: IC50 Range
11β-HSD1 [2] = target: T1, 11β-HSD1; assay: biochemical; conditions: for IC50: IC50 Range, Biological Test Example 1, microsomes from CHO cells overexpressing human 11β-HSD1; for inhibition at 0.1 µM: read-out: Average % inhibition at 100 nM, Biological Test Example 1, 100 nM compound
[3] = Biological Test Example 1, 100 nM compound, 0.1 µM
[4] = Biological Test Example 1, 100 nM, 0.1 µM
[5] = Biological Test Example 1, 111.1 nM compound, 0.1111 µM
[6] = Biological Test Example 1, microsomes from CHO cells overexpressing human 11β-HSD1

T1 sequence (P28845 whole entry): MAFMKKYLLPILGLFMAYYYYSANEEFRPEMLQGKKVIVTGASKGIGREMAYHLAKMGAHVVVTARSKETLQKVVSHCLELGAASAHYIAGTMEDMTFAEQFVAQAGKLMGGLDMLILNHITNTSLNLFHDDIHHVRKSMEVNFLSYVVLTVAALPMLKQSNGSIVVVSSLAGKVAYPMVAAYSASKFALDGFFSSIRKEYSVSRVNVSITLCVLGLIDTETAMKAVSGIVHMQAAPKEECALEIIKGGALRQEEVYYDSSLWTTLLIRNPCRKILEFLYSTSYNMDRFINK

| Compound | Average % inhibition at 100 nM (11β-HSD1 [1]; [3]) [%] | IC50 (11β-HSD1 [2]) [nM] | IC50 (11β-HSD1 [1]; [6]) [nM] | further results |
| --- | --- | --- | --- | --- |
| COc1ccc([C@H](C)N2CCC(CC(O)CO)(c3ccccc3)OC2=O)cc1 (single isomer, unassigned) [EXAMPLE 286 Isomer 1] | 94.1 | < 100 |  |  |
| O=C1OC(CCCO)(c2ccccc2)CCN1C1CC1c1ccccc1 (single isomer, unassigned) [EXAMPLE 188 Isomer 1, 6-(3-hydroxypropyl)-6-phenyl-3-(2-phenylcyclopropyl)-1,3-oxazinan-2-one] | 77.0 | < 100 |  |  |
| C[C@@H](c1ccccc1)N1CCC(CO)(c2ccc(F)cc2)OC1=O (single isomer, unassigned) [EXAMPLE 114 Isomer 2] | 66.6 | < 100 |  |  |
| CC(C)C1(CC(O)CO)CCN([C@@H](C)c2ccc(-c3ccc(F)cc3F)cc2)C(=O)O1 (single isomer, unassigned) [EXAMPLE 223 Isomer 4] | 52.5 | > 100 |  |  |
| C[C@@H](c1ccc(-c2ccc(F)cc2F)cc1)N1CCC(CCO)(C(C)(C)C)OC1=O (single isomer, unassigned) [EXAMPLE 336 Isomer 1] |  | < 100 |  | Average % inhibition at 100 nM (11β-HSD1 [1]; [4]): 50.8% |
| COc1ccc([C@H](C)N2CCC(CCCO)(c3ccc(F)cc3)OC2=O)cc1 (single isomer, unassigned) [EXAMPLE 201 Isomer 1] | 93.2 | < 100 |  |  |
| COc1ccc([C@H](C)N2CCC(CC(O)CO)(c3ccccc3)OC2=O)cc1 (single isomer, unassigned) [EXAMPLE 286 Isomer 3] | 70.5 | < 100 |  |  |
| COc1ccc([C@H](C)N2CCC(CCCO)(c3ccc(F)cc3)OC2=O)cc1 (single isomer, unassigned) [EXAMPLE 201 Isomer 2] | 27.0 | > 100 |  |  |
| COc1ccc([C@H](C)N2CCC(CCCO)(C(C)C)OC2=O)cc1 (single isomer, unassigned) [EXAMPLE 332 Isomer 1] |  | < 100 |  | Average % inhibition at 100 nM (11β-HSD1 [1]; [4]): 97.8% |
| C[C@@H](c1ccc(Br)cc1)N1CC[C@](CC(O)CO)(c2ccc(F)cc2)OC1=O (single isomer, unassigned) [EXAMPLE 144 Isomer 2] |  |  | < 100 | Average % inhibition at 111.1 nM (11β-HSD1 [1]; [5]): 96.6%; inhibition at 0.1 µM (11β-HSD1 [2]): 95.3% |
| COc1ccc([C@H](C)N2CCC(CC(O)CO)(c3ccccc3)OC2=O)cc1 (single isomer, unassigned) [EXAMPLE 286 Isomer 2] | 94.5 | < 100 |  |  |
| CC(C)C1(CC(O)CO)CCN([C@@H](C)c2ccc(-c3ccc(F)cc3F)cc2)C(=O)O1 (single isomer, unassigned) [EXAMPLE 223 Isomer 3] | 27.8 | > 100 |  |  |
| C=CCC1(c2ccc(F)cc2)CCN([C@@H](C)c2ccc(Br)cn2)C(=O)O1 (single isomer, unassigned) [EXAMPLE 128 Isomer 2] |  | > 1000 |  | Average % inhibition at 111.1 nM (11β-HSD1 [1]; [5]): 6.5% |
| C[C@@H](c1ccc(-c2ccc(F)cc2F)cc1)N1CC[C@](CC(O)CNC(N)=O)(c2ccc(F)cc2)OC1=O (single isomer, unassigned) [EXAMPLE 276 Isomer 1] | 83.1 | < 100 |  |  |
| C[C@@H](c1ccc(Br)cc1)N1CCC(CCCO)(C(C)(C)C)OC1=O (single isomer, unassigned) [EXAMPLE 335 Isomer 1] |  | < 100 |  | Average % inhibition at 100 nM (11β-HSD1 [1]; [4]): 48.2% |
| CC(C)C1(CCC(N)=O)CCN([C@@H](C)c2ccc(Cl)cc2)C(=O)O1 (single isomer, unassigned) [EXAMPLE 334 Isomer 1] |  | < 100 |  | Average % inhibition at 100 nM (11β-HSD1 [1]; [4]): 96.6% |
| C=CCC1(c2cccs2)CCN([C@@H](C)c2ccc(-c3ccc(F)cc3)cc2)C(=O)O1 (single isomer, unassigned) [EXAMPLE 160 Isomer 2] |  |  | < 100 | Average % inhibition at 111.1 nM (11β-HSD1 [1]; [5]): 95.2%; inhibition at 0.1 µM (11β-HSD1 [2]): 95.9% |
| C[C@@H](c1ccc(-c2ccc(F)cc2F)cc1)N1CC[C@](CC(O)CN(C)C)(c2ccc(F)cc2)OC1=O (single isomer, unassigned) [EXAMPLE 273 Isomer 2] | 17.9 | > 100 |  |  |
| COc1ccc([C@H](C)N2CCC(CCC(N)=O)(C(C)C)OC2=O)cc1 (single isomer, unassigned) [EXAMPLE 333 Isomer 2] |  | > 100 |  | Average % inhibition at 100 nM (11β-HSD1 [1]; [4]): 9.1% |
| C=CCC1(c2ccc(F)cc2)CCN([C@@H](CC)c2ccc(Br)cc2)C(=O)O1 (single isomer, unassigned) [EXAMPLE 130 Isomer 2] |  |  | < 100 | inhibition at 0.1111 µM (11β-HSD1 [2]; read-out: Average % inhibition at 111.1 nM, Biological Test Example 1, 111.1 nM compound): 87.7% |
| CC(C)(C)OC(=O)N1CCC(N2CCC(CCCO)(c3ccccc3)OC2=O)C1 (single isomer, unassigned) [EXAMPLE 208 Isomer 1] | 76.6 | < 100 |  |  |
| O=C1OC(CCO)(c2ccccc2F)CCN1c1cccc(-c2ccc(F)cc2)n1 (single isomer, unassigned) [EXAMPLE 104 Isomer 1] |  | 100 to 1000 |  | Average % inhibition at 111.1 nM (11β-HSD1 [1]; [5]): 44.3% |

| Compound | Average % inhibition at 100 nM (11β-HSD1 [1]; [3]) [%] | IC50 (11β-HSD1 [2]) [nM] | IC50 (11β-HSD1 [1]; [6]) [nM] | further results |
| --- | --- | --- | --- | --- |
| CC1CC(CCO)(c2ccc(F)cc2)OC(=O)N1[C@@H](C)c1ccc(Br)cc1 (single isomer, unassigned) [EXAMPLE 163 Isomer 3] | 11.3 | > 100 |  |  |
| CC[C@@H](c1ccc(Br)cc1)N1CCC(CCO)(c2ccc(F)cc2)OC1=O (single isomer, unassigned) [EXAMPLE 143 Isomer 2] |  |  | < 100 | inhibition at 0.1 µM (11β-HSD1 [2]): 95.4% |
| (R)-3-((S)-1-(2′,4′-difluorobiphenyl-4-yl)propyl)-6-(4-fluorophenyl)-6-(2-hydroxyethyl)-1,3-oxazinan-2-one [EXAMPLE 175 Isomer 2] |  |  |  | Average % inhibition at 111.1 nM (11β-HSD1 [1]): 25.8%; IC50 (11β-HSD1 [1]): 100 to 1000 nM |
| C=CCC1(c2ccc(F)cc2)CCN([C@@H](C)c2ccc(Br)cn2)C(=O)O1 (single isomer, unassigned) [EXAMPLE 128 Isomer 1] |  | 100 to 1000 |  | Average % inhibition at 111.1 nM (11β-HSD1 [1]; [5]): 27.5%; inhibition at 0.1 µM (11β-HSD1 [2]): 26.1% |
| COc1ccc([C@H](C)N2CC[C@](CC(O)CO)(c3ccc(F)cc3)OC2=O)cc1 (single isomer, unassigned) [EXAMPLE 206 Isomer 2] | 85.9 |  | < 100 |  |
| C[C@@H](c1ccc(-c2ccc(F)cc2F)cc1)N1CCC(CCO)(c2cccs2)OC1=O (single isomer, unassigned) [EXAMPLE 233 Isomer 1] | 98.9 | < 100 |  |  |
| CC[C@@H](c1ccc(Br)cc1)N1CC[C@](CC(O)CO)(c2ccc(F)cc2)OC1=O (single isomer, unassigned) [EXAMPLE 255 Isomer 2] | 89.3 |  | < 100 |  |
| (R)-6-(3-hydroxypropyl)-3-((S)-1-(4-methoxyphenyl)ethyl)-6-phenyl-1,3-oxazinan-2-one [EXAMPLE 282 Isomer 1] |  |  |  | Average % inhibition at 100 nM (11β-HSD1 [1]): 94.0%; IC50 (11β-HSD1 [1]): < 100 nM |
| C[C@@H](c1ccc(-c2ccc(F)cc2)cc1)N1CC[C@](CC(O)CNS(C)(=O)=O)(c2ccc(F)cc2)OC1=O (single isomer, unassigned) [EXAMPLE 277 Isomer 2] |  |  |  | Average % inhibition at 100 nM (11β-HSD1 [1]; 0.1 µM): 65.6%; IC50 (11β-HSD1 [1]): < 100 nM |
| C=CCC1(c2ccc(F)cc2)CCN([C@@H](C)c2ccc(OC)cc2)C(=O)O1 (single isomer, unassigned) [EXAMPLE 193 Isomer 2] |  |  | < 100 |  |
| C=CC1(c2ccc(F)cc2)CCN([C@@H](C)c2ccccc2)C(=O)O1 (single isomer, unassigned) [EXAMPLE 113 Isomer 2] |  |  | < 100 | Average % inhibition at 111.1 nM (11β-HSD1 [1]; [5]): 82.6% |
| CC(C)C1(CCCO)CCN([C@@H](C)c2ccc(Cl)cc2)C(=O)O1 (single isomer, unassigned) [EXAMPLE 187 Isomer 2] |  |  | < 100 | Average % inhibition at 100 nM (11β-HSD1 [1]; 0.1 µM): 46.4% |
| C[C@@H](c1ccc(-c2ccc(F)cc2F)cc1)N1CCC(CCCO)(c2cccs2)OC1=O (single isomer, unassigned) [EXAMPLE 171 Isomer 2] | 68.6 |  | < 100 |  |
| (S)-3-((S)-1-(2′,4′-difluorobiphenyl-4-yl)propyl)-6-(4-fluorophenyl)-6-(2-hydroxyethyl)-1,3-oxazinan-2-one [EXAMPLE 175 Isomer 1] |  |  |  | Average % inhibition at 111.1 nM (11β-HSD1 [1]): 93.7%; IC50 (11β-HSD1 [1]): < 100 nM |
| 3-((S)-1-(2′,4′-difluorobiphenyl-4-yl)ethyl)-6-(2-hydroxyethyl)-6-isopropyl-1,3-oxazinan-2-one [EXAMPLE 207 Isomer 1] |  |  |  | Average % inhibition at 100 nM (11β-HSD1 [1]; 0.1 µM): 89.9%; IC50 (11β-HSD1 [1]): < 100 nM |
| C[C@H](c1ccccc1)N1CCC(C)(c2ccccc2)OC1=O (single isomer, unassigned) [EXAMPLE 83 Isomer 2] |  |  | 100 to 1000 | Average % inhibition at 111.1 nM (11β-HSD1 [1]; [5]): 45.8% |
| C[C@@H](c1ccc(-c2ccc(F)cc2F)cc1)N1CC[C@](CC(O)CO)(c2ccccc2)OC1=O (single isomer, unassigned) [EXAMPLE 173 Isomer 2] | 94.5 |  | < 100 |  |
| C[C@@H](C1CCCCC1)N1CC[C@](CC(O)CO)(c2ccc(F)cc2)OC1=O (single isomer, unassigned) [EXAMPLE 197 Isomer 2] | 82.1 |  | < 100 |  |
| CC(O)C[C@]1(c2ccccc2)CCN([C@@H](C)c2ccc(-c3ccc(F)cc3)cc2)C(=O)O1 (single isomer, unassigned) [EXAMPLE 224 Isomer 2] | 95.6 |  | < 100 |  |
| C[C@@H](c1ccc(Br)cc1)N1CCC(CCCO)(C(C)(C)C)OC1=O (single isomer, unassigned) [EXAMPLE 335 Isomer 2] |  |  | < 100 | Average % inhibition at 100 nM (11β-HSD1 [1]; [4]): 96.7% |
| CC(C)C1(CCCO)CCN([C@@H](C)c2ccc(Br)cc2)C(=O)O1 (single isomer, unassigned) [EXAMPLE 200 Isomer 2] |  |  | < 100 |  |
